The text below walks through data of the supplement of paper PMC6580486.

This test deals with U23674 (mouse alveolar rhabdomyosarcoma primary culture).
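Also: alveolar rhabdomyosarcoma tumor culture.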

As for `Cc1ccc2c(-c3ccnc(Nc4ccc5c(c4)OCCO5)n3)c(-c3ccc(C(F)(F)F)cc3)nn2n1`, the IC50 cell viability was greater than 10 µM. Take `N#Cc1cccc(Nc2nccc(-c3cnn4ncccc34)n2)c1`: the IC50 cell viability came out at 0.05 µM.

`CCc1nn2ncccc2c1-c1ccnc(NC2CC2)n1` came in with an IC50 cell viability greater than 10 µM. `N#Cc1c(NC(=O)CN2CCOCC2)sc2c1CCCC2` returned an IC50 cell viability greater than 10 µM.

`CCCN1CCC(Oc2cc(Nc3nc(Nc4cccc(F)c4C(N)=O)c4cc[nH]c4n3)c(OC)cc2Cl)CC1` registered an IC50 cell viability of 3.2 µM. `COc1ccccc1Nc1ncc(-c2ccccc2)o1` yielded an IC50 cell viability greater than 10 µM. The value for `COc1cc2ncn(-c3cc(O[C@H](C)c4ccccc4Cl)c(C(N)=O)s3)c2cc1OC` was 0.1 µM; that for `COc1cc2ncn(-c3cc(OCc4ccccc4Cl)c(C(N)=O)s3)c2cc1OC` was greater than 10 µM. In turn, `COc1cc(Nc2ncc3c(C)nc(-c4cccc(C(F)(F)F)c4)n3n2)cc(OC)c1OC` returned an IC50 cell viability greater than 10 µM. The molecule `COc1cc(C=NNc2ncnc3c2cnn3Cc2ccccc2)ccc1O` came in with an IC50 cell viability greater than 10 µM. To `Cc1cc(O)cc(C)c1/C=C/c1cncc(-c2nn[nH]n2)c1` belongs greater than 10 µM.

Molecule `CCS(=O)(=O)c1ccc(OC)c(Nc2nccc(N(C)c3ccc4c(C)[nH]nc4c3)n2)c1` registered an IC50 cell viability greater than 10 µM. As for `Cc1ccc(NC(=O)c2ccoc2)cc1-c1ccc(C(=O)NCC2CC2)cc1`, the IC50 cell viability is greater than 10 µM.

For the molecule `COc1cc(N2CCN(C(C)C)CC2)ccc1Nc1nc(Nc2cccc(F)c2C(=O)O)c2cc[nH]c2n1`, the IC50 cell viability is greater than 10 µM.

For the molecule `O=C(Nc1n[nH]c2nc(-c3ccc(O)cc3)c(Br)cc12)C1CC1`, the IC50 cell viability is greater than 10 µM. Molecule `Cc1cccc(-c2[nH]ncc2-c2ccc3ncccc3n2)n1` came in with an IC50 cell viability greater than 10 µM.

The molecule `Cc1c2ccc(N(C)c3ccnc(Nc4cccc(S(N)(=O)=O)c4)n3)cc2nn1C` came in with an IC50 cell viability greater than 10 µM. To `COc1cc(/C=N/Nc2ncnc3c2cnn3C(C)C)ccc1O` belongs greater than 10 µM; to `NC(=O)c1cccc(Nc2nccc(Nc3cccc4[nH]ncc34)n2)c1`, greater than 10 µM.

`CCn1c(-c2nonc2N)nc2c(N3CCCC3)nccc21` showed an IC50 cell viability greater than 10 µM. As for `COC(=O)c1sc(-n2cnc3cc(OC)c(OC)cc32)cc1OCc1ccccc1C(F)(F)F`, the IC50 cell viability is greater than 10 µM. The molecule `N#Cc1c(NC(=O)c2ccc(F)cc2)sc2c1CCCC2` came in with an IC50 cell viability greater than 10 µM. On to `NS(=O)(=O)c1ccc(N=Nc2c(O)[nH]c3ccc(Cl)cc23)cc1`, for which the IC50 cell viability was greater than 10 µM. The value for `COC(=O)c1cncc(/C=C/c2c(C)cc(O)cc2C)c1` was greater than 10 µM; that for `CCn1c(-c2nonc2N)nc2c(C#CC(C)(C)O)ncc(OC3CCNCC3)c21` was greater than 10 µM; that for `CN(c1ccc(NC(=O)Nc2c(Cl)cccc2Cl)cc1)c1ccnc(Nc2cccc(CS(C)(=O)=O)c2)n1` was greater than 10 µM. The value for `Fc1ccc(-c2cc(-c3cn[nH]c3-c3ccccn3)ccn2)cc1` was greater than 10 µM; that for `O=C1NC(=O)C(N2CCc3ccccc32)=C1c1ccc(Cl)cc1` was greater than 10 µM; that for `COc1ccc(-c2coc3ncnc(N)c23)cc1` was greater than 10 µM. `O=C(OC1CNC(C#Cc2cc3ncnc(Nc4ccc5c(ccn5Cc5cc(F)ccc5F)c4)c3s2)C1)N1CCOCC1` (configuration not stated): the IC50 cell viability was greater than 10 µM. `CS(=O)(=O)CCNCc1ccc(-c2ccc3ncnc(Nc4ccc(OCc5cccc(F)c5)c(C(F)(F)F)c4)c3c2)o1` came in with an IC50 cell viability of 4.8 µM. For the molecule `CCn1c(-c2nonc2N)nc2cncc(C(=O)NCCNC)c21`, the IC50 cell viability was greater than 10 µM.

Turning to `CN(C)CCOc1ccc(-c2nc(-c3ccncc3)c(-c3ccc4c(c3)CC/C4=N\O)[nH]2)cc1`, the IC50 cell viability is greater than 10 µM. `Fc1cccc(COc2ccc(Nc3ncnc4sc(-c5ccco5)cc34)cc2Cl)c1`: the IC50 cell viability is greater than 10 µM. Consider `COc1cc2ncn(-c3cc(OCc4ccccc4C(F)(F)F)c(C(C)=O)s3)c2cc1OC`, for which the IC50 cell viability is greater than 10 µM.

Molecule `Cc1cc(Cl)cc2c(N=Nc3ccc(S(N)(=O)=O)cc3)c(O)[nH]c12` displayed an IC50 cell viability greater than 10 µM. To `CCn1c(-c2nonc2N)nc2c(C#CC(C)(C)O)nc(OC[C@@H](N)c3ccccc3)cc21` belongs greater than 10 µM; to `COc1cc2c(cc1Nc1nc(Nc3ccsc3C(N)=O)c3cc[nH]c3n1)N(C(=O)CN(C)C)CCC2(C)C`, 0.4 µM; to `Cn1c(-c2nonc2N)nc2cnccc21`, greater than 10 µM. The value for `Fc1ccc(-c2c(-c3ccncc3)nc3n2CCS3)cc1` was greater than 10 µM; that for `Fc1ccc(-c2nn3ncccc3c2-c2ccnc(Nc3ccc4c(c3)OCCO4)n2)cc1` was greater than 10 µM. To `c1cnn2ncc(-c3ccnc(NCCCN4CCOCC4)n3)c2c1` belongs greater than 10 µM; to `O=C(Nc1n[nH]c2cc(-c3ccccc3)ccc12)C1CC1`, greater than 10 µM.

In the case of `COc1ccc(-c2nn3ncccc3c2-c2ccnc(Nc3ccc(F)c(F)c3)n2)cc1`, the IC50 cell viability was greater than 10 µM.

`Cc1nnc(-c2cccc(-c3ccc(C(=O)NCC4CC4)cc3)c2)o1` had an IC50 cell viability greater than 10 µM. The molecule `Nc1ccc(C#Cc2cncnc2Nc2ccc(OCc3cccc(F)c3)c(Cl)c2)cc1` returned an IC50 cell viability greater than 10 µM. The value for `COc1cc2c(cc1Nc1nc(Nc3ccsc3C(N)=O)c3cc[nH]c3n1)N(C(=O)CN(C)C)CCC2` was 0.05 µM. Molecule `Nc1ncnc2occ(-c3ccc(NC(=O)Nc4cc(C(F)(F)F)ccc4F)cc3)c12` gave an IC50 cell viability greater than 10 µM.

Take `Cc1cccc(Nc2ncc(-c3ccccc3)o2)c1`: the IC50 cell viability was greater than 10 µM.

Turning to `COc1cc2ncn(-c3cc(O[C@@H](C)c4ccccc4Cl)c(C(N)=O)s3)c2cc1OC`, the IC50 cell viability was greater than 10 µM. For `COc1cc2ncn(-c3cc(OCc4cccs4)c(C(N)=O)s3)c2cc1OC`, the IC50 cell viability was greater than 10 µM. In the case of `Cc1ccc2c(-c3ccnc(Nc4cccc(C(F)(F)F)c4)n3)c(-c3ccccc3)nn2n1`, the IC50 cell viability is greater than 10 µM. Molecule `CS(=O)(=O)CCNCc1nc(-c2ccc3ncnc(Nc4ccc(F)c(Cl)c4)c3c2)cs1` had an IC50 cell viability greater than 10 µM. The molecule `ON=C1CCc2cc(-c3nc(C4CCNCC4)[nH]c3-c3ccncc3)ccc21` yielded an IC50 cell viability greater than 10 µM. In turn, `COc1ccc2cc(-c3c(-c4ccncc4)nc(-c4ccc(S(C)(=O)=O)cc4C)n3C)ccc2c1` had an IC50 cell viability greater than 10 µM.

In turn, `N#Cc1ccc(Oc2nccc(-c3c(-c4ccc(F)cc4)ncn3C3CCNCC3)n2)cc1` showed an IC50 cell viability greater than 10 µM. Molecule `COC(=O)Nc1nc2ccc(Oc3ccc(NC(=O)Nc4ccccc4)cc3)cc2[nH]1` registered an IC50 cell viability greater than 10 µM. `FC(F)(F)CNc1nccc(-c2cnn3ncccc23)n1` gave an IC50 cell viability of 4.4 µM. `Nc1nccc(-c2c(-c3ccc(F)cc3)nn3cc(C(F)(F)F)ccc23)n1` yielded an IC50 cell viability greater than 10 µM. For `CCNC(=O)O[C@H]1CN[C@H](C#Cc2cc3ncnc(Nc4ccc(OCc5cccc(F)c5)c(Cl)c4)c3s2)C1`, the IC50 cell viability was greater than 10 µM.

Consider `CN(C)c1ccc2[nH]c(O)c(C=Nc3ccc(S(N)(=O)=O)cc3)c2c1`, for which the IC50 cell viability was greater than 10 µM. In turn, `O=C(O[C@H]1CN[C@H](C#Cc2cc3ncnc(Nc4ccc(OCc5cccc(F)c5)c(Cl)c4)c3s2)C1)N1CCOCC1` registered an IC50 cell viability greater than 10 µM. On to `CNC(=O)Oc1cc(C)c(/C=C/c2cncc(C(=O)NC)c2)c(C)c1`, for which the IC50 cell viability is greater than 10 µM.

Regarding `COc1ccc(C2=C(N3CCc4ccccc43)C(=O)NC2=O)cc1`, the IC50 cell viability was greater than 10 µM.

Regarding `COc1ccc(-c2ccncc2)cc1C(N)=O`, the IC50 cell viability was greater than 10 µM.

Molecule `CS(=O)(=O)CCNCc1cc(-c2cc3c(Nc4ccc(OCc5cccc(F)c5)c(Cl)c4)ncnc3s2)cs1` showed an IC50 cell viability greater than 10 µM. Consider `Fc1ccc(-c2ncn(C3CCNCC3)c2-c2ccnc(Oc3ccc4c(c3)OCO4)n2)cc1`, for which the IC50 cell viability is greater than 10 µM. On to `OCc1ccc(-c2nc(-c3ccc4c(c3)OCO4)c(-c3ccccn3)[nH]2)cc1`, for which the IC50 cell viability is greater than 10 µM. The molecule `CC(=O)NCc1cccc(C#Cc2cncnc2Nc2ccc(OCc3cccc(F)c3)c(Cl)c2)c1` gave an IC50 cell viability greater than 10 µM.

`COC(=O)Nc1nc2ccc(Oc3cccc(NC(=O)Nc4cc(C(F)(F)F)ccc4F)c3)cc2[nH]1` had an IC50 cell viability greater than 10 µM. To `c1cc(-c2cnn3nc(N4CCOCC4)ccc23)nc(NC2CC2)n1` belongs greater than 10 µM.

For `CC(=O)Nc1cccc(C#Cc2cncnc2Nc2ccc(OCc3cccc(F)c3)c(Cl)c2)c1`, the IC50 cell viability was greater than 10 µM.

On to `CCN(CC)S(=O)(=O)c1ccc(OC)c(Nc2ncc(-c3ccccc3)o2)c1`, for which the IC50 cell viability was greater than 10 µM. The value for `O=C1NC(=O)C(c2ccccc2Cl)=C1Nc1cccc(O)c1` was 2 µM; that for `CC1(C)CC(n2cnc(-c3ccc(F)cc3)c2-c2ccnc(N)n2)CC(C)(C)N1` was 0.2 µM; that for `CC1=C(C(=O)Nc2ccc3[nH]ncc3c2)C(c2ccc3ccccc3c2)CC(=O)N1` (configuration not stated) was greater than 10 µM. To `CCS(=O)(=O)c1ccc(OC)c(Nc2ncc(-c3ccccc3Cl)o2)c1` belongs greater than 10 µM; to `Cc1ccc(Nc2ccnc(Nc3cccc(C(N)=O)c3)n2)cc1O`, greater than 10 µM; to `c1ccc(-c2[nH]ncc2-c2ccnc(-c3ccc(OCCn4ccnc4)cc3)c2)nc1`, greater than 10 µM. Turning to `Cc1ccc(C(=O)NC2CC2)cc1-c1ccc2[nH]ncc2c1`, the IC50 cell viability is greater than 10 µM. To `c1ccc(COc2ccc(Nc3ncnc4ccc(-c5ccco5)cc34)cc2)cc1` belongs greater than 10 µM; to `CN1CCN(C(=O)c2ccc(NC(=O)Nc3ccc(N(C)c4ccnc(Nc5ccc(CS(C)(=O)=O)cc5)n4)cc3)cc2)CC1`, greater than 10 µM. Turning to `C[C@@H](Oc1cc(-n2cnc3ccc(OCC4CCN(C)CC4)cc32)sc1C(N)=O)c1ccccc1C(F)(F)F`, the IC50 cell viability was 0.1 µM. Regarding `COc1ccc2ncn(-c3cc(O[C@H](C)c4ccccc4Cl)c(C(N)=O)s3)c2c1`, the IC50 cell viability came to 2 µM. The molecule `CN1CCC(C(=O)Nc2n[nH]c3nnc(-c4ccccc4)cc23)CC1` registered an IC50 cell viability greater than 10 µM. In the case of `Cc1cccc2c(N=Nc3ccc(S(N)(=O)=O)cc3)c(O)[nH]c12`, the IC50 cell viability is greater than 10 µM. `CN1CCC(n2cnc(-c3ccc(F)cc3)c2-c2ccnc(Nc3ccccc3)n2)CC1` gave an IC50 cell viability greater than 10 µM.
